In brackets after ≈: the same amount, converted by molar mass. Several values for one entry are separate records, joined by “and”; a condition that tells them apart may be missing. Equal values may be shown once. Read-outs that look alike come from different tables or passages of the source. Marks after values point to notes of the source that are not given here.
Tests used:
MPro = settings: compiled from peer-reviewed sources (287 compounds) ref the 18 original articles; cited from earlier work
SARS-CoV-2 MPro = SARS-CoV-2 MPro (Severe acute respiratory syndrome coronavirus 2, UniProt P0DTD1); assay: MPro activity assay (de-quenching of Edans fluorescence on cleavage of a Dabcyl/Edans peptide); assay type: biochemical; settings: for IC50: 60 min pre-incubation, 5 μM substrate
SARS-CoV-2 = test system: SARS-CoV-2; parameters: method as in Henss et al., 2021; settings: 72 h assay ref Henss et al., 2021, cited from earlier work
[1] = test system: SARS-CoV-2 (βCoV/KOR/KCDC03/2020); assay: microbe, parasite or virus in culture; assay type: cell-based
in vitro = settings: African green monkey
[2] = Cytotoxicity assay, WST-1; settings: human, CC50 A549 cells
[3] = test system: human lung cell line A549; assay: Cytotoxicity assay, WST-1; settings: read-out: CC50 A549 cells, 24 h
[4] = Severe acute respiratory syndrome coronavirus 2, Vero, 24 h
[5] = Severe acute respiratory syndrome coronavirus 2, Vero, read-out: inhibition of viral replication

In the case of `CC(C)(C)OC(=O)Nc1cccn(C(CC2CCCCC2)C(=O)NC(CC2CCNC2=O)C(=O)C(=O)NC2CC2)c1=O` (stereo not drawn) [compound 13a], the “Class (MPro activity class)” value (MPro) is listed as 1 (Compounds with IC50 < 10 µM or with a percentage of enzyme inhibition >50% at 10 µM were labelled as ACTIVE) and the activity at 10 µM (SARS-CoV-2 MPro; read-out: % activity MPro) is listed as 98.6 ± 0.9%.

In the case of `O=C(O[C@@H]1Cc2c(O)cc(O)cc2O[C@@H]1c1cc(O)c(O)c(O)c1)c1cc(O)c(O)c(O)c1` [epigallocatechin gallate], the “IC50 SARS-CoV-2 replication” value (SARS-CoV-2) is given as 1.73 µg/mL (≈ 3.77 µM) and the IC50 (SARS-CoV-2; read-out: IC50 SARS-CoV-2 replication) is given as 3.9 µM.

In the case of `O=C(/C=C/c1ccc2ccccc2c1)c1c(O)ccc2ccccc12` [27d], the “antiviral activity (in words)” value [1] is reported as “lacked antiviral activity” and the IC50 (SARS-CoV-2 MPro) is reported as 5.8 µM.

In the case of `CCC(CC)COC(=O)[C@H](C)N[P@](=O)(OC[C@H]1O[C@@](C#N)(c2ccc3c(N)ncnn23)[C@H](O)[C@@H]1O)Oc1ccccc1` [Remdesivir], the “Class (MPro activity class)” value (MPro) is given as 0 (compounds with IC50 > 20 μM, percentage inhibition <80% at 20 µM or 50 μM, or percentage enzyme inhibition <50% at 10 µM were labelled as INACTIVE), the “SI: selectivity index = CC50 mammalian cell/IC50 SARS-CoV-2” value (Vero cells) is given as >50 (>6.4) ^a and the IC50 [1] is given as 7.8 µM. The IC50 [1, 4] was 8 µM and the CC50 (in vitro) was greater than 50 µM.

With `O=C(OC[C@H]1O[C@@H]([S+]([O-])c2ccccc2)[C@H](OC(=O)c2ccccc2)[C@@H](OC(=O)c2ccccc2)[C@@H]1OC(=O)c1ccccc1)c1ccccc1` (stereo partly drawn) [7a] the IC50 [1, 4] was greater than 50 µM, the inhibition at 25 µM ([1]; Severe acute respiratory syndrome coronavirus 2, Vero, at 25 μM, read-out: inhibition of viral replication) was 15% and the inhibition at 50 µM [1, 5] was 21%. It also gave a CC50 (in vitro) greater than 50 µM and an IC50 (SARS-CoV-2 MPro) of 20.2 ± 1.9 µM.

In the case of `Cc1cccc(C)c1OCC(=O)N[C@@H](Cc1ccccc1)[C@@H](O)C[C@H](Cc1ccccc1)NC(=O)[C@H](C(C)C)N1CCCNC1=O` [Lopinavir], the “Class (MPro activity class)” value (MPro) is given as 0 (compounds with IC50 > 20 μM, percentage inhibition <80% at 20 µM or 50 μM, or percentage enzyme inhibition <50% at 10 µM were labelled as INACTIVE), the IC50 [1] is given as 21.5 µM and the IC50 [1, 4] is given as 22 µM. It also gave a CC50 (in vitro) greater than 150 µM.

In the case of `CCN(CC)CCCC(C)Nc1ccnc2cc(Cl)ccc12` (stereo not drawn) [Chloroquine], the “Class (MPro activity class)” value (MPro) is listed as 0 (compounds with IC50 > 20 μM, percentage inhibition <80% at 20 µM or 50 μM, or percentage enzyme inhibition <50% at 10 µM were labelled as INACTIVE), the IC50 [1] is listed as 17.8 µM and the IC50 [1, 4] is listed as 18 µM. The CC50 (in vitro) was greater than 150 µM.

For `O=c1c(Cl)c(Cl)cnn1Cc1nc2ccccc2c2ccccc12` [39d], the “impairment of cell viability” value (Vero cells; at 50 μM) was 13%, the inhibition at 50 µM [1, 5] was 18% and the IC50 (SARS-CoV-2 MPro) was 2 µM.

In the case of `O=C(/C=C/c1cccc2ccccc12)c1c(O)ccc2ccccc12` [28d], the “impairment of cell viability” value (Vero cells; African green monkey) is reported as roughly 25%, the CC50 at 24 h [2] is reported as greater than 100 µM and the IC50 [1, 4] is reported as 48.9 µM. The CC50 (in vitro) was greater than 50 µM and the IC50 (SARS-CoV-2 MPro) was 1.4 µM and 1.35 µM.

In the case of `[O-][n+]1onc2ccc(/C=C/Sc3ccc(Cl)cc3)cc21` [3d], the CC50 [3] is reported as less than 50 µM, the CC50 at 24 h [2] is reported as no more than 50 µM and the IC50 [1] is reported as 8.3 µM. It also gave an IC50 [1, 4] of roughly 8 µM, a CC50 (in vitro) of 15.2 µM and an IC50 (SARS-CoV-2 MPro) of 0.73 ± 0.16 µM.

Work on `O=c1c2ccccc2[se]n1-c1ccccc1` [Ebselen] yielded a CC50 at 24 h [2] greater than 100 µM, an IC50 [1] of 9.7 µM and an IC50 [1, 4] of 10 µM. The CC50 (in vitro) was greater than 50 µM.

In the case of `Nc1ccc(S(=O)(=O)c2ccc(Nc3c([N+](=O)[O-])c(Cl)cc4c3no[n+]4[O-])cc2)cc1` [22d], the CC50 at 24 h [2] is reported as greater than 100 µM, the IC50 [1] is reported as 44.8 µM and the IC50 [1, 4] is reported as roughly 44 µM. It also gave a CC50 (in vitro) greater than 50 µM and an IC50 (SARS-CoV-2 MPro) of 0.37 ± 0.085 µM.

Work on `O=C(/C=C/c1ccc2ccccc2c1)c1ccccc1O` [compound 25] yielded a CC50 at 24 h [2] greater than 50 µM, an IC50 [1] of 17.5 µM and a CC50 (in vitro) of 38.8 µM. The IC50 (SARS-CoV-2 MPro) was 0.46 ± 0.21 µM.

`[O-][n+]1onc2ccc(/C=C\c3ccc(Cl)cc3)cc21` [2d] showed a CC50 at 24 h [2] greater than 50 µM and an activity at 25 µM (SARS-CoV-2 MPro; read-out: MPro activity (%)) of 53.2 ± 0.2%.

`[O-][n+]1onc2ccc(/C=C/[S+]([O-])c3ccc(Cl)cc3)cc21` (stereo not drawn) [4d] showed a CC50 [3] of 50 to 100 µM, a CC50 at 24 h [2] of no more than 50 µM and an IC50 [1] of 7.3 µM. It also gave an IC50 [1, 4] of roughly 8 µM, a CC50 (in vitro) of 15.2 µM and an IC50 (SARS-CoV-2 MPro) of 0.121 ± 0.002 µM.

With `O=C(/C=C/c1ccc2no[n+]([O-])c2c1)c1ccc(Cl)cc1` [5d] the CC50 at 24 h [2] was greater than 50 µM, the IC50 [1] was 43.2 µM and the IC50 [1, 4] was roughly 44 µM. It also gave a CC50 (in vitro) greater than 50 µM and an IC50 (SARS-CoV-2 MPro) of 0.64 ± 0.02 µM.

With `O=c1c(Cl)c(Cl)cnn1Cc1nc2ccccc2c2ccccc12` [Cpd 39] the CC50 at 24 h [2] was 50 to 100 µM, the IC50 [1, 4] was greater than 50 µM and the CC50 (in vitro) was greater than 50 µM. For the same compound, the IC50 (SARS-CoV-2 MPro) was 1.97 ± 0.5 µM and the “Class (MPro activity class)” value (SARS-CoV-2 MPro; in-house acquired data, internal screening under standardized conditions (128 compounds)) was 0 (compounds with IC50 > 20 μM, percentage inhibition <80% at 20 µM or 50 μM, or percentage enzyme inhibition <50% at 10 µM were labelled as INACTIVE).

Reference: PMC10323144, “Garbage in, garbage out: how reliable training data improved a virtual screening approach against SARS-CoV-2 MPro” (Frontiers in Pharmacology, 2023)
